Experimental findings from patent publication US7576218B2, “4-phenylpiperdine-pyrazole CCR1 antagonists” (ChemoCentryx, Inc., priority 2005, dated 2009) are described below.

The target in the assay is T1, CCR1 (Homo sapiens, UniProt P32246).
T1 sequence (P32246 1-355): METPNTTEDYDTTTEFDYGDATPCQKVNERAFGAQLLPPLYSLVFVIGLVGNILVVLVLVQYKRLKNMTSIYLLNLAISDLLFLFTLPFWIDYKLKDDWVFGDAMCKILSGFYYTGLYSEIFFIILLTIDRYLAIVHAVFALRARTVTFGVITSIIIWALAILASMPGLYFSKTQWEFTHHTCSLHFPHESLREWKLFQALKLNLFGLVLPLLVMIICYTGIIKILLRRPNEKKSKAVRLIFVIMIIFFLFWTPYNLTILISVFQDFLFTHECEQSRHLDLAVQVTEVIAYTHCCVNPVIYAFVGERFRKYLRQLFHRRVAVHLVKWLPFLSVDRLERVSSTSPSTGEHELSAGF
Description: CCR1 chemotaxis assay or binding assay (inhibition of CCR1 ligand binding / CCR1 mediated migration).
Description: Cells were grown under 5% CO2/95% air, 100% humidity at 37° C. and subcultured twice weekly at 1:5 (cells were cultured at a density range of 2×10^5 to 2×10^6 cells/mL) and harvested at 1×10^6 cells/mL.
Monocytes were isolated from human buffy coats using the Miltenyi bead isolation system (Miltenyi, Auburn, Calif.). Briefly, following a Ficoll gradient separation to isolate peripheral blood mononuclear cells, cells were washed with PBS and the red blood cells lysed using standard procedures. Remaining cells were labeled with anti-CD14 antibodies coupled to magnetic beads (Miltenyi Biotech, Auburn, Calif.). Labeled cells were passed through AutoMACS (Miltenyi, Auburn, Calif.) and positive fraction collected.
CCR1 expressing cells were centrifuged and resuspended in assay buffer (20 mM HEPES pH 7.1, 140 mM NaCl, 1 mM CaCl2, 5 mM MgCl2, and with 0.2% bovine serum albumin) to a concentration of 5×10^6 cells/mL for THP-1 cells and 5×10^5 for monocytes. Binding assays were set up as follows. […] Reactions were aspirated onto GF/B glass filters pre-soaked in 0.3% polyethyleneimine (PEI) solution, on a vacuum cell harvester (Packard Instruments; Meriden, Conn.). Scintillation fluid (40 μl; Microscint 20, Packard Instruments) was added to each well, the plates were sealed and radioactivity measured in a Topcount scintillation counter (Packard Instruments). Control wells containing either diluent only (for total counts) or excess MIP-1α or MIP-1β (1 μg/mL, for non-specific binding) were used to calculate the percent of total inhibition for compound. The computer program Prism from GraphPad, Inc. (San Diego, Calif.) was used to calculate IC50 values.
Chemotaxis assays were performed using 5 ? m pore polycarbonate, polyvinylpyrrolidone-coated filters in 96-well chemotaxis chambers (Neuroprobe; Gaithersburg, Md.) using chemotaxis buffer (Hank's balanced salt solution (HBSS) and 1% FBS). CCR1 chemokine ligands (i.e., MIP-1α, CCL15/Leukotactin; R&D Systems; Minneapolis, Minn.) are use to evaluate compound mediated inhibition of CCR1 mediated migration. Other chemokines (i.e., SDF-1α; R&D Systems; Minneapolis, Minn.) are used as specificity controls. […] The chambers were incubated 1-2 hours at 37° C., and the number of cells in the lower chamber quantified either by direct cell counts in five high powered fields per well or by the CyQuant assay (Molecular Probes), a fluorescent dye method that measures nucleic acid content and microscopic observation.
Equal numbers of cells were added to each well in the plate. The cells were then incubated with radiolabeled MIP-1α. Unbound ligand was removed by washing the cells, and bound ligand was determined by quantifying radioactive counts. […] Percent inhibition was determined by the equation:
In the assay, the amount of compound was varied; while cell number and ligand concentration were held constant.
THP-1 myelomonocytic leukemia cells, which resemble monocytes, as wells as freshly isolated monocytes, were used as targets for chemoattraction by CCR1 chemokine ligands (i.e., MIP-1α, CCL15/leukotactin). […] In this assay, the amount of compound was varied; while cell number and chemokine agonist concentrations were held constant. After the chemotaxis chambers were incubated 1-2 hours at 37° C., the responding cells in the lower chamber were quantified by labeling with the CyQuant assay (Molecular Probes), a fluorescent dye method that measures nucleic acid content, and by measuring with a Spectrafluor Plus (Tecan).
In turn, `COC(=O)C1(c2ccc(Cl)cc2)CCN(C(=O)Cn2nc(C(F)(F)F)c(Cl)c2C)CC1` [Example 2, 1-[2-(4-chloro-5-methyl-3-trifluoromethyl-pyrazol-1-yl)-acetyl]-4-(4-chloro-phenyl)-piperidine-4-carboxylic acid methyl ester] yielded an IC50 of less than 1000 nM. Molecule `Cc1c(Cl)c(C(F)(F)F)nn1CC(=O)N1CCC(C#N)(c2ccc(Cl)cc2)CC1` [Example 1, 1-[2-(4-chloro-5-methyl-3-trifluoromethyl-pyrazol-1-yl)-acetyl]-4-(4-chloro-phenyl)-piperidine-4-carbonitrile] showed an IC50 of less than 1000 nM. `CC(=O)C1(c2ccccc2)CCN(C(=O)Cn2nc(C(F)(F)F)c(Cl)c2C)CC1` [Example 27, 1-(4-Acetyl-4-phenyl-piperidin-1-yl)-2-(4-chloro-5-methyl-3-trifluoromethyl-pyrazol-1-yl)-ethanone] showed a half-maximal inhibitory concentration (IC50) of 1000 to 25000 nM. As for `Cc1c(Cl)c(C(F)(F)F)nn1CC(=O)N1CCC(C(=O)N2CCOCC2)(c2ccc(Cl)cc2)CC1` [Example 19, 2-(4-chloro-5-methyl-3-trifluoromethyl-pyrazol-1-yl)-1-[4-(4-chloro-phenyl)-4-(4-morpholine-1-carbonyl)-piperidin-1-yl]-ethanone morpholine], the IC50 fell in the range of 1000 to 25000 nM. Regarding `COc1cc(C2(O)CCN(C(=O)Cn3nc(-c4ncco4)c(Cl)c3C)CC2)ccc1Cl` [Example 5, 1-[4-(4-Chloro-3-methoxy-phenyl)-4-hydroxy-piperidin-1-yl]-2-(4-chloro-5-methyl-3-oxazol-2-yl-pyrazol-1-yl)-ethanone], the IC50 is less than 1000 nM. The molecule `COc1cc(C2(C#N)CCN(C(=O)Cn3nc(C(F)(F)F)c(Cl)c3C)CC2)ccc1Cl` [Example 26] gave an IC50 of less than 1000 nM. On to `Cc1c(Cl)c(C(F)(F)F)nn1CC(=O)N1CCC(C(=O)O)(c2ccc(Cl)cc2)CC1` [Example 25, 1-[2-(4-chloro-5-methyl-3-trifluoromethyl-pyrazol-1-yl)-acetyl]-4-(4-chloro-phenyl)-piperidine-4-carboxylic acid], for which the IC50 was more than 25000 nM. Take `Cc1c(Cl)c(C(F)(F)F)nn1CC(=O)N1CCC(C(=O)N2CCCCC2)(c2ccc(Cl)cc2)CC1` [Example 16, 2-(4-chloro-5-methyl-3-trifluoromethyl-pyrazol-1-yl)-1-[4-(4-chloro-phenyl)-4-(piperidine-1-carbonyl)-piperidin-1-yl]-ethanone]: the IC50 is 1000 to 25000 nM. The value for `Cc1c(Cl)c(C(F)(F)F)nn1CC(=O)N1CCC(O)(c2ccc(Cl)c(C(F)(F)F)c2)CC1` [Example 9, 2-(4-Chloro-5-methyl-3-trifluoromethyl-pyrazol-1-yl)-1-(4-hydroxy-4-(4-chloro-3-trifluoromethyl)-phenyl-piperidin-1-yl)-ethanone] was 1000 to 25000 nM; that for `Cc1c(Cl)c(C(F)(F)F)nn1CC(=O)N1CCC(O)(c2cccc(C(F)(F)F)c2)CC1` [Example 11, 2-(4-Chloro-5-methyl-3-trifluoromethyl-pyrazol-1-yl)-1-(4-hydroxy-4-(3-trifluoromethyl)-phenyl-piperidin-1-yl)-ethanone] was 1000 to 25000 nM; that for `Cc1c(Cl)c(C(F)(F)F)nn1CC(=O)N1CCC(O)(c2ccc(Cl)cc2)CC1` [Example 8, 2-(4-Chloro-5-methyl-3-trifluoromethyl-pyrazol-1-yl)-1-(4-hydroxy-4-(4-chloro)-phenyl-piperidin-1-yl)-ethanone] was less than 1000 nM. For the molecule `Cc1c(Cl)c(C(F)(F)F)nn1CC(=O)N1CCC(c2ccc(Cl)cc2)(c2nnn[nH]2)CC1` [Example 20, 2-(4-chloro-5-methyl-3-trifluoromethyl-pyrazol-1-yl)-1-[4-(4-chloro-phenyl)-4-(1H-tetrazol-5-yl)-piperidin-1-yl]-ethanone], the IC50 is 1000 to 25000 nM. Consider `Cc1c(Cl)c(C(F)(F)F)nn1CC(=O)N1CCC(C#N)(c2ccccc2)CC1` [Example 12, 1-[2-(4-chloro-5-methyl-3-trifluoromethyl-pyrazol-1-yl)-acetyl]-4-phenyl-piperidine-4-carbonitrile], for which the 50% inhibitory concentration (IC50) was in the range of 1000 to 25000 nM. For `CCN(CC)C(=O)C1(c2ccc(Cl)cc2)CCN(C(=O)Cn2nc(C(F)(F)F)c(Cl)c2C)CC1` [Example 14, 1-[2-(4-chloro-5-methyl-3-trifluoromethyl-pyrazol-1-yl)-acetyl]-4-(4-chloro-phenyl)-piperidine-4-diethylamide], the IC50 fell in the range of 1000 to 25000 nM.

As to `Cc1c(Cl)c(C(F)(F)F)nn1CC(=O)N1CCC(O)(c2ccccc2)CC1` [Example 7, 2-(4-Chloro-5-methyl-3-trifluoromethyl-pyrazol-1-yl)-1-(4-hydroxy-4-phenyl-piperidin-1-yl)-ethanone], the half-maximal inhibitory concentration (IC50) lay within 1000 to 25000 nM. As for `COc1cc(C2(O)CCN(C(=O)COc3ccc(Cl)cc3)CC2)ccc1Cl` [Example 6, 1-[4-(4-Chloro-3-methoxy-phenyl)-4-hydroxy-piperidin-1-yl]-2-(4-chloro-phenoxy)-ethanone], the 50% inhibitory concentration (IC50) is less than 1000 nM.

`Cc1c(Cl)c(C(F)(F)F)nn1CC(=O)N1CCC(C(=O)N2CCN(C)CC2)(c2ccc(Cl)cc2)CC1` [Example 18, 2-(4-chloro-5-methyl-3-trifluoromethyl-pyrazol-1-yl)-1-[4-(4-chloro-phenyl)-4-(4-methyl-piperazine-1-carbonyl)-piperidin-1-yl]-ethanone]: the IC50 was more than 25000 nM. For the molecule `CCCC(=O)C1(c2ccccc2)CCN(C(=O)Cn2nc(C(F)(F)F)c(Cl)c2C)CC1` [Example 29, 1-(4-propylcarbonyl-4-phenyl-piperidin-1-yl)-2-(4-chloro-5-methyl-3-trifluoromethyl-pyrazol-1-yl)-ethanone], the half-maximal inhibitory concentration (IC50) is less than 1000 nM. In turn, `Cc1c(Cl)c(C(F)(F)F)nn1CC(=O)N1CCC(C(=O)N2CCCC2)(c2ccc(Cl)cc2)CC1` [Example 15, 2-(4-chloro-5-methyl-3-trifluoromethyl-pyrazol-1-yl)-1-[4-(4-chloro-phenyl)-4-(pyrrolidine-1-carbonyl)-piperidin-1-yl]-ethanone] registered an IC50 of 1000 to 25000 nM. The molecule `COc1cc(C2(O)CCN(C(=O)Cn3nc(C(F)(F)F)c(Cl)c3C)CC2)ccc1Cl` [Example 4, 1-[4-(4-Chloro-3-methoxy-phenyl)-4-hydroxy-piperidin-1-yl]-2-(4-chloro-5-methyl-3-trifluoromethyl-pyrazol-1-yl)-ethanone] showed an IC50 of less than 1000 nM.

In the case of `Cc1c(Cl)c(C(F)(F)F)nn1CC(=O)N1CCC(CO)(c2ccc(Cl)cc2)CC1` [Example 23, 2-(4-chloro-5-methyl-3-trifluoromethyl-pyrazol-1-yl)-1-[4-(4-chloro-phenyl)-4-hydroxymethyl-piperidin-1-yl]-ethanone], the IC50 lay in the range of 1000 to 25000 nM.

For `Cc1c(Cl)c(C(F)(F)F)nn1CC(=O)N1CCC(O)(c2ccc(Br)cc2)CC1` [Example 10, 2-(4-Chloro-5-methyl-3-trifluoromethyl-pyrazol-1-yl)-1-(4-hydroxy-4-(4-bromo)-phenyl-piperidin-1-yl)-ethanone], the IC50 fell in the range of 1000 to 25000 nM.

Turning to `Cc1c(Cl)c(-c2ncco2)nn1CC(=O)N1CCC(C#N)(c2ccc(Cl)cc2)CC1` [Example 3, 1-[2-(4-chloro-5-methyl-3-oxazol-2-yl-pyrazol-1-yl)-acetyl]-4-(4-chloro-phenyl)-piperidine-4-carbonitrile], the half-maximal inhibitory concentration (IC50) was less than 1000 nM. In turn, `Cc1c(Cl)c(C(F)(F)F)nn1CC(=O)N1CCC(C(N)=O)(c2ccc(Cl)cc2)CC1` [Example 22, 1-[2-(4-chloro-5-methyl-3-trifluoromethyl-pyrazol-1-yl)-acetyl]-4-(4-chloro-phenyl)-piperidine-4-carboxylic acid amide] yielded an IC50 of less than 1000 nM. As for `Cc1c(Cl)c(C(F)(F)F)nn1CC(=O)N1CCC(C(=O)N2CCNCC2)(c2ccc(Cl)cc2)CC1` [Example 17, 2-(4-chloro-5-methyl-3-trifluoromethyl-pyrazol-1-yl)-1-[4-(4-chloro-phenyl)-4-(piperazine-1-carbonyl)-piperidin-1-yl]-ethanone], the IC50 was more than 25000 nM. `CCC(=O)C1(c2ccccc2)CCN(C(=O)Cn2nc(C(F)(F)F)c(Cl)c2C)CC1` [Example 28, 1-(4-ethylcarbonyl-4-phenyl-piperidin-1-yl)-2-(4-chloro-5-methyl-3-trifluoromethyl-pyrazol-1-yl)-ethanone] registered an IC50 of 1000 to 25000 nM. The result for `Cc1c(Cl)c(C(F)(F)F)nn1CC(=O)N1CCC(CN)(c2ccc(Cl)cc2)CC1` [Example 24, 1-[4-aminomethyl-4-(4-chloro-phenyl)-piperidin-1-yl]-2-(4-chloro-5-methyl-3-trifluoromethyl-pyrazol-1-yl)-ethanone] reads 1000 to 25000 nM.

`CNC(=O)C1(c2ccc(Cl)cc2)CCN(C(=O)Cn2nc(C(F)(F)F)c(Cl)c2C)CC1` [Example 13, 1-[2-(4-chloro-5-methyl-3-trifluoromethyl-pyrazol-1-yl)-acetyl]-4-(4-chloro-phenyl)-piperidine-4-methylamide] gave a concentration for half-maximal inhibition (IC50) of 1000 to 25000 nM. For the molecule `Cc1c(Cl)c(C(F)(F)F)nn1CC(=O)N1CCC(C(=N)NO)(c2ccc(Cl)cc2)CC1` [Example 21, 1-[2-(4-chloro-5-methyl-3-trifluoromethyl-pyrazol-1-yl)-acetyl]-4-(4-chloro-phenyl)-N-hydroxy-piperidine-4-carboxamidine], the half-inhibitory concentration (IC50) is less than 1000 nM.
